Measured values as given in article PMC11678425, “(-)-Syringaresinol Exerts an Antidepressant-like Activity in Mice by Noncompetitive Inhibition of the Serotonin Transporter” (Pharmaceuticals, 2024).

How the values were obtained:
SERT = conditions: cited from earlier work
SERT Y107C/C109A = assay: Cysteine accessibility, extracellular pathway: MTSET reactivity with Y107C/C109A; format: cell-based; conditions: 10 μM ligand, compared with the control (MTSET alone)
SERT S277C/X5C = assay: Cysteine accessibility, cytoplasmic pathway: MTSEA reactivity with S277C/X5C; format: cell-based; conditions: 10 μM ligand, digitonin-permeabilized cells, compared with the control
hSERT G498T = biological target: T1, hSERT G498T (Homo sapiens, UniProt P31645, G498T); assay: APP^+ uptake, hSERT G498T; format: cell-based; conditions: S2 site mutant
T1 construct: forward and reverse primers were used to amplify a full-length hSERT; expressed in transfected cells; host or cells: HeLa cells, transient, pcDNA3.1

hSERT T583A = biological target: T2, hSERT T583A (Homo sapiens, UniProt P31645, T583A); assay: APP^+ uptake, hSERT T583A; format: cell-based; conditions: S2 site mutant
T2 construct: forward and reverse primers were used to amplify a full-length hSERT; expressed in transfected cells; host or cells: HeLa

hSERT R564A = biological target: T3, hSERT R564A (Homo sapiens, UniProt P31645, R564A); assay: APP^+ uptake, hSERT R564A; format: cell-based; conditions: S2 site mutant
T3 construct: forward and reverse primers were used to amplify a full-length hSERT; expressed in transfected cells; host or cells: HeLa

hSERT E494Q = biological target: T4, hSERT E494Q (Homo sapiens, UniProt P31645, E494Q); assay: APP^+ uptake, hSERT E494Q; format: cell-based; conditions: S2 site mutant
T4 construct: forward and reverse primers were used to amplify a full-length hSERT; expressed in transfected cells; host or cells: HeLa cells, transient, pcDNA3.1

hSERT E493N = biological target: T5, hSERT E493N (Homo sapiens, UniProt P31645, E493N); assay: APP^+ uptake, hSERT E493N; format: cell-based; conditions: S2 site mutant
T5 construct: forward and reverse primers were used to amplify a full-length hSERT; expressed in transfected cells; host or cells: HeLa cells, transient, pcDNA3.1

hSERT P561G = biological target: T6, hSERT P561G (Homo sapiens, UniProt P31645, P561G); assay: APP^+ uptake, hSERT P561G; format: cell-based; conditions: S2 site mutant
T6 construct: forward and reverse primers were used to amplify a full-length hSERT; expressed in transfected cells; host or cells: HeLa

hSERT D328A = biological target: T7, hSERT D328A (Homo sapiens, UniProt P31645, D328A); assay: APP^+ uptake, hSERT D328A; format: cell-based; conditions: S2 site mutant
T7 construct: forward and reverse primers were used to amplify a full-length hSERT; expressed in transfected cells; host or cells: HeLa cells, transient, pcDNA3.1

hSERT F556A = biological target: T8, hSERT F556A (Homo sapiens, UniProt P31645, F556A); assay: APP^+ uptake, hSERT F556A; format: cell-based; conditions: S2 site mutant
T8 construct: forward and reverse primers were used to amplify a full-length hSERT; expressed in transfected cells; host or cells: HeLa cells, transient, pcDNA3.1

hSERT T497A = biological target: T9, hSERT T497A (Homo sapiens, UniProt P31645, T497A); assay: APP^+ uptake, hSERT T497A; format: cell-based; conditions: S2 site mutant
T9 construct: forward and reverse primers were used to amplify a full-length hSERT; expressed in transfected cells; host or cells: HeLa cells, transient, pcDNA3.1

hSERT P499G = biological target: T10, hSERT P499G (Homo sapiens, UniProt P31645, P499G); assay: APP^+ uptake, hSERT P499G; format: cell-based; conditions: S2 site mutant
T10 construct: forward and reverse primers were used to amplify a full-length hSERT; expressed in transfected cells; host or cells: HeLa cells, transient, pcDNA3.1

hSERT Q562N = biological target: T11, hSERT Q562N (Homo sapiens, UniProt P31645, Q562N); assay: APP^+ uptake, hSERT Q562N; format: cell-based; conditions: S2 site mutant
T11 construct: forward and reverse primers were used to amplify a full-length hSERT; expressed in transfected cells; host or cells: HeLa

hSERT S559A = biological target: T12, hSERT S559A (Homo sapiens, UniProt P31645, S559A); assay: APP^+ uptake, hSERT S559A; format: cell-based; conditions: S2 site mutant
T12 construct: forward and reverse primers were used to amplify a full-length hSERT; expressed in transfected cells; host or cells: HeLa cells, transient, pcDNA3.1

hSERT WT = biological target: T13, hSERT WT (Homo sapiens, UniProt P31645); assay: APP^+ uptake, hSERT WT; format: cell-based; conditions: WT
T13 construct: forward and reverse primers were used to amplify a full-length hSERT; expressed in transfected cells; host or cells: HeLa cells (CCL-2), transient, pcDNA3.1

hSERT L563A = biological target: T14, hSERT L563A (Homo sapiens, UniProt P31645, L563A); assay: APP^+ uptake, hSERT L563A; format: cell-based; conditions: S2 site mutant
T14 construct: forward and reverse primers were used to amplify a full-length hSERT; expressed in transfected cells; host or cells: HeLa

hSERT L565A = biological target: T15, hSERT L565A (Homo sapiens, UniProt P31645, L565A); assay: APP^+ uptake, hSERT L565A; format: cell-based; conditions: S2 site mutant
T15 construct: forward and reverse primers were used to amplify a full-length hSERT; expressed in transfected cells; host or cells: HeLa

hSERT Q111N = biological target: T16, hSERT Q111N (Homo sapiens, UniProt P31645, Q111N); assay: APP^+ uptake, hSERT Q111N; format: cell-based; conditions: S2 site mutant
T16 construct: forward and reverse primers were used to amplify a full-length hSERT; expressed in transfected cells; host or cells: HeLa cells, transient, pcDNA3.1

hSERT P560G = biological target: T17, hSERT P560G (Homo sapiens, UniProt P31645, P560G); assay: APP^+ uptake, hSERT P560G; format: cell-based; conditions: S2 site mutant
T17 construct: forward and reverse primers were used to amplify a full-length hSERT; expressed in transfected cells; host or cells: HeLa cells, transient, pcDNA3.1

hSERT Y579A = biological target: T18, hSERT Y579A (Homo sapiens, UniProt P31645, Y579A); assay: APP^+ uptake, hSERT Y579A; format: cell-based; conditions: S2 site mutant
T18 construct: forward and reverse primers were used to amplify a full-length hSERT; expressed in transfected cells; host or cells: HeLa

hSERT I327A = biological target: T19, hSERT I327A (Homo sapiens, UniProt P31645, I327A); assay: APP^+ uptake, hSERT I327A; format: cell-based; conditions: S2 site mutant
T19 construct: forward and reverse primers were used to amplify a full-length hSERT; expressed in transfected cells; host or cells: HeLa cells, transient, pcDNA3.1

In the case of COc1cc(C2OCC3C(c4cc(OC)c(OC5OC(CO)C(O)C(O)C5OC5OCC(O)(CO)C5O)c(OC)c4)OCC23)cc(OC)c1O (single isomer, unassigned; (-)) [SAG, (-)-syringaresinol-4-O-D-apiofuranosyl-(1→2)-D-glucopyranoside], the “inhibitory potency against SERT” value (SERT) is listed as “a few micromolar range” and the “mode of inhibition of SERT activity” value (SERT) is listed as “noncompetitively inhibit”.

For COc1cc(C2OCC3C(c4cc(OC)c(O[C@@H]5O[C@H](CO)[C@@H](O)[C@H](O)[C@H]5O)c(OC)c4)OCC23)cc(OC)c1O[C@@H]1O[C@H](CO)[C@@H](O)[C@H](O)[C@H]1O (single isomer, unassigned; (-)) [SBG, (-)-syringaresinol-4,4′-bis-O-β-D-glucopyranoside], the “inhibitory potency against SERT” value (SERT) is given as “a few micromolar range” and the “mode of inhibition of SERT activity” value (SERT) is given as “noncompetitively inhibit”.

In the case of NCCc1c[nH]c2ccc(O)cc12 [5-HT, 5-hydroxytryptamine, reference compound], the “rate constant of MTSET reactivity with Y107C/C109A” value (SERT Y107C/C109A) is reported as “decreased” and the “rate constant of MTSEA reactivity with S277C/X5C” value (SERT S277C/X5C) is reported as “increased”.

Work on CN(C)c1ccc(-c2cc[n+](C)cc2)cc1 [APP^+, 4-(4-(dimethylamino)phenyl)-1-methylpyridinium] yielded a Vmax (hSERT G498T; APP^+ transport) of 26.30 ± 1.52 AFU/min, a Km (hSERT G498T) of 3.75 ± 0.32 µM and a Vmax (hSERT T583A; APP^+ transport) of 26.97 ± 0.26 AFU/min. It also gave a Km (hSERT T583A) of 3.68 ± 0.15 µM, a Vmax (hSERT R564A; APP^+ transport) of 27.10 ± 0.08 AFU/min and a Km (hSERT R564A) of 3.41 ± 0.12 µM. The Vmax (hSERT E494Q; APP^+ transport) was 31.12 ± 0.89 AFU/min, the Km (hSERT E494Q) was 6.83 ± 0.86 µM and the Vmax (hSERT E493N; APP^+ transport) was 25.48 ± 0.96 AFU/min. It also gave a Km (hSERT E493N) of 4.83 ± 0.19 µM, a Vmax (hSERT P561G; APP^+ transport) of 26.55 ± 1.08 AFU/min and a Km (hSERT P561G) of 2.73 ± 0.09 µM. The Vmax (hSERT D328A; APP^+ transport) was 27.83 ± 0.85 AFU/min, the Km (hSERT D328A) was 3.81 ± 0.27 µM and the Vmax (hSERT F556A; APP^+ transport) was 26.84 ± 1.74 AFU/min. It also gave a Km (hSERT F556A) of 4.69 ± 1.02 µM, a Vmax (hSERT T497A; APP^+ transport) of 26.63 ± 1.09 AFU/min and a Km (hSERT T497A) of 3.85 ± 0.06 µM. For the same compound, the Vmax (hSERT P499G; APP^+ transport) was 27.28 ± 0.43 AFU/min, the Km (hSERT P499G) was 3.72 ± 0.45 µM and the Vmax (hSERT Q562N; APP^+ transport) was 23.57 ± 1.49 AFU/min. It also gave a Km (hSERT Q562N) of 1.85 ± 0.36 µM, a Vmax (hSERT S559A; APP^+ transport) of 23.68 ± 0.57 AFU/min and a Km (hSERT S559A) of 3.82 ± 0.55 µM. For the same compound, the Vmax (hSERT WT; APP^+ transport) was 22.98 ± 0.92 AFU/min, the Km (hSERT WT) was 2.24 ± 0.45 µM and the Vmax (hSERT L563A; APP^+ transport) was 23.53 ± 0.45 AFU/min. The Km (hSERT L563A) was 1.53 ± 0.07 µM, the Vmax (hSERT L565A; APP^+ transport) was 21.13 ± 0.16 AFU/min and the Km (hSERT L565A) was 0.68 ± 0.04 µM. For the same compound, the Vmax (hSERT Q111N; APP^+ transport) was 26.93 ± 1.35 AFU/min, the Km (hSERT Q111N) was 3.69 ± 0.36 µM and the Vmax (hSERT P560G; APP^+ transport) was 21.70 ± 0.90 AFU/min. It also gave a Km (hSERT P560G) of 1.85 ± 0.16 µM, a Vmax (hSERT Y579A; APP^+ transport) of 23.89 ± 2.33 AFU/min and a Km (hSERT Y579A) of 2.81 ± 0.08 µM. The Vmax (hSERT I327A; APP^+ transport) was 26.54 ± 1.43 AFU/min and the Km (hSERT I327A) was 4.27 ± 0.79 µM.
